# Measurements from ChEMBL document CHEMBL5053494, “Novel halogenated arylvinyl-1,2,4 trioxanes as potent antiplasmodial as well as anticancer agents: Synthesis, bioevaluation, structure-activity relationship and in-silico studies” (Eur J Med Chem, 2021).
# Activity calls are given as the source filed them. The calls are words filed in the database; no cut-off is given here.
# Legend:
# [1] = test system: Plasmodium falciparum; experiment: Antiplasmodial activity against chloroquine-resistant Plasmodium falciparum INDO assessed as growth inhibition by SYBER green 1 dye based fluorescence assay; type: functional, organism-based
# [2] = test system: A549; experiment: Anticancer activity against human A549 cells assessed as cell growth inhibition measured for 72 hrs by MTT assay; type: functional, cell-based; details: A549, 72 h
# [3] = test system: HepG2; experiment: Anticancer activity against human HepG2 cells assessed as cell growth inhibition measured for 72 hrs by MTT assay; type: functional, cell-based; details: HepG2, 72 h
# [4] = test system: BEAS-2B; experiment: Anticancer activity against human BEAS-2B cells assessed as cell growth inhibition measured for 72 hrs by MTT assay; type: functional, cell-based
# [5] = test system: L02; experiment: Anticancer activity against human L02 cells assessed as cell growth inhibition measured for 72 hrs by MTT assay; type: functional, cell-based; details: L02, 72 h
# [6] = Selectivity ratio of IC50 for anticancer activity against human BEAS-2B cells to IC50 for anticancer activity against human A549 cells; type: toxicity, cell-based; details: BEAS-2B cells versus A549 cells, read-out: Ratio IC50
# [7] = Selectivity ratio of IC50 for anticancer activity against human L02 cells to IC50 for anticancer activity against human HepG2 cells; type: toxicity, cell-based; details: L02 cells versus HepG2 cells, read-out: Ratio IC50
# [8] = test system: Plasmodium falciparum; experiment: Antiplasmodial activity against artemisinin-resistant Plasmodium falciparum Cam 3.1 R539 assessed as growth inhibition by SYBER green 1 dye based fluorescence assay; type: functional, organism-based
# [9] = test system: Plasmodium falciparum; experiment: Resistance index, ratio of IC50 for antiplasmodial activity against artemisinin-resistant Plasmodium falciparum Cam 3.1 R539 to IC50 for antiplasmodial activity against chloroquine-resistant Plasmodium falciparum INDO; type: functional
# [10] = Cytotoxicity against human HEK293 cells assessed as cell viability measured for 24 hrs by MTT assay; type: cell-based
# [11] = Selectivity index, ratio of CC50 for human HEK293 cells to IC50 for antiplasmodial activity against chloroquine-resistant Plasmodium falciparum INDO; type: toxicity; details: HEK293 cells versus Plasmodium falciparum INDO
# [12] = test system: Plasmodium falciparum; experiment: Antiplasmodial activity against ring stage chloroquine-resistant Plasmodium falciparum INDO assessed as percentage survival at 70 nM for 6 hrs by ring stage survival assay; type: functional, organism-based
# [13] = test system: Plasmodium falciparum; experiment: Antiplasmodial activity against ring stage chloroquine-resistant Plasmodium falciparum Cam 3.1 R539 assessed as percentage survival at 70 nM for 6 hrs by ring stage survival assay; type: functional
# [14] = test system: Plasmodium falciparum; experiment: Antiplasmodial activity against ring stage chloroquine resistant Plasmodium falciparum INDO assessed as percentage survival at 700 nM for 6 hrs by ring stage survival assay; type: functional
# [15] = test system: Plasmodium falciparum; experiment: Antiplasmodial activity against ring stage chloroquine-resistant Plasmodium falciparum Cam 3.1 R539 assessed as percentage survival at 700 nM for 6 hrs by ring stage survival assay relative to control; type: functional
# [16] = test system: Plasmodium berghei; experiment: Antimalarial activity against Plasmodium berghei ANKA infected in Balb/c mouse assessed as suppression of parasitemia at 50 mg/kg, ip administered for 4 days by microscopic analysis; type: functional; details: time 4 day
# [17] = test system: Plasmodium berghei; experiment: Antimalarial activity against Plasmodium berghei ANKA infected in Balb/c mouse assessed as suppression of parasitemia at 50 mg/kg, po administered for 4 days by microscopic analysis; type: functional; details: time 4 day
smiles,measurement,setting,value
C=C(c1ccc(F)cc1F)C1COC2(CCCCC2)OO1 (stereo not drawn),IC50,[1],> 0.1 µM
same,IC50,[2],> 100 µM
same,IC50,[3],36 µM
same,IC50,[4],49.7 µM
same,IC50,[5],17.6 µM
same,selectivity ratio,[6],11.5
C=C(c1ccc(F)cc1F)C1COC2(CCCC2)OO1 (stereo not drawn),IC50,[1],> 0.1 µM
same,IC50,[2],5.09 µM
same,IC50,[3],15.4 µM
same,IC50,[4],62.6 µM
same,IC50,[5],17.6 µM
same,selectivity ratio,[6],12.3
same,selectivity ratio,[7],1.14
C=C(c1ccc(F)cc1F)C1COC(C)(C)OO1 (stereo not drawn),IC50,[1],> 0.1 µM
same,IC50,[2],> 100 µM
same,IC50,[3],> 100 µM
same,IC50,[4],> 100 µM
same,IC50,[5],> 100 µM
C=C(c1cc(Cl)cc(Cl)c1OCc1ccccc1)C1COC(C)(C)OO1 (stereo not drawn),IC50,[1],0.04 µM
same,IC50,[8],0.0173 µM
same,Ratio IC50,[9],0.44
same,CC50 at 24 h,[10],31.6 µM
same,selectivity ratio,[11],811
same,IC50,[2],58.4 µM
same,IC50,[3],39.5 µM
same,IC50,[4],25.5 µM
same,IC50,[5],64.1 µM
same,selectivity ratio,[6],3.16
same,selectivity ratio,[7],4.78
C=C(c1ccc(Cl)cc1Cl)C1COC2(OO1)C1CC3CC(C1)CC2C3 (stereo not drawn),IC50,[1],0.0154 µM
same,IC50,[8],0.0462 µM
same,Ratio IC50,[9],2.99
same,CC50 at 24 h,[10],14.8 µM
same,selectivity ratio,[11],989
same,IC50,[2],9.92 µM
same,IC50,[3],17.2 µM
same,IC50,[4],10.2 µM
same,IC50,[5],12.5 µM
same,selectivity ratio,[6],1.02
same,selectivity ratio,[7],0.41
C=C(c1cc(Cl)cc(Cl)c1OCc1ccccc1)C1COC2(CCCCC2)OO1 (stereo not drawn),IC50,[1],> 0.1 µM
same,IC50,[2],> 100 µM
same,IC50,[3],> 100 µM
same,IC50,[4],> 100 µM
same,IC50,[5],> 100 µM
C=C(c1ccc(F)c(F)c1)C1COC(C)(C)OO1 (stereo not drawn),IC50,[1],> 0.1 µM
same,IC50,[2],> 100 µM
same,IC50,[3],> 100 µM
same,IC50,[4],> 100 µM
same,IC50,[5],> 100 µM
C=C(c1ccc(Cl)cc1Cl)C1COC(C)(C)OO1 (stereo not drawn),IC50,[1],> 0.1 µM
same,IC50,[2],92.6 µM
same,IC50,[3],90.5 µM
same,IC50,[4],68.6 µM
same,IC50,[5],37.7 µM
same,selectivity ratio,[6],0.74
same,selectivity ratio,[7],0.16
CC(=O)O[C@H]1C(=O)[C@@]2(C)[C@H]([C@H](OC(=O)c3ccccc3)[C@]3(O)C[C@H](OC(=O)[C@H](O)[C@@H](NC(=O)c4ccccc4)c4ccccc4)C(C)=C1C3(C)C)[C@]1(OC(C)=O)CO[C@@H]1C[C@@H]2O [PACLITAXEL],IC50,[3],0.19 µM
same,IC50,[4],< 0.1 µM
same,IC50,[5],< 0.1 µM
C=C(c1ccc(F)c(F)c1)C1COC2(OO1)C1CC3CC(C1)CC2C3 (stereo not drawn),IC50,[1],0.0123 µM
same,IC50,[8],0.0414 µM
same,Ratio IC50,[9],3.39
same,CC50 at 24 h,[10],12.6 µM
same,selectivity ratio,[11],1050
same,IC50,[2],4.97 µM
same,IC50,[3],26.1 µM
same,IC50,[4],57.1 µM
same,IC50,[5],9.48 µM
same,selectivity ratio,[6],6.29
same,selectivity ratio,[7],0.48
C=C(c1ccc(Cl)c(Cl)c1)C1COC(C)(C)OO1 (stereo not drawn),IC50,[1],> 0.1 µM
same,IC50,[2],> 100 µM
same,IC50,[3],> 100 µM
same,IC50,[4],> 100 µM
same,IC50,[5],50.9 µM
C=C(c1ccc(F)cc1F)C1COC2(OO1)C1CC3CC(C1)CC2C3 (stereo not drawn),IC50,[1],> 0.1 µM
same,IC50,[2],4.43 µM
same,IC50,[3],65.6 µM
same,IC50,[4],46.4 µM
same,IC50,[5],10.9 µM
same,selectivity ratio,[6],10.5
same,selectivity ratio,[7],0.16
C=C(c1cc(Cl)cc(Cl)c1OCc1ccccc1)C1COC2(CCCC2)OO1 (stereo not drawn),IC50,[1],0.0316 µM
same,CC50 at 24 h,[10],2.26 µM
same,selectivity ratio,[11],72.9
same,IC50,[2],2.07 µM
same,IC50,[3],13.7 µM
same,IC50,[4],28.6 µM
same,IC50,[5],65.6 µM
same,selectivity ratio,[6],0.43
same,selectivity ratio,[7],0.19
C=C(c1ccc(Cl)c(Cl)c1)C1COC2(OO1)C1CC3CC(C1)CC2C3 (stereo not drawn),IC50,[1],0.0224 µM
same,IC50,[8],0.05 µM
same,Ratio IC50,[9],2.24
same,CC50 at 24 h,[10],13.2 µM
same,selectivity ratio,[11],599
same,IC50,[2],2.93 µM
same,IC50,[3],34.3 µM
same,IC50,[4],26.7 µM
same,IC50,[5],3.36 µM
same,selectivity ratio,[6],9.11
same,selectivity ratio,[7],0.5
C[C@@H]1CC[C@H]2[C@@H](C)C(=O)O[C@@H]3O[C@@]4(C)CC[C@@H]1[C@]32OO4 [ARTEMISININ],IC50,[1],0.0066 µM
same,IC50,[8],0.0135 µM
same,Ratio IC50,[9],2.05
same,CC50 at 24 h,[10],> 26 µM
same,selectivity ratio,[11],4330
same,Activity,[12],inactive
same,Activity,[13],50%
same,Activity,[14],10%
same,Activity,[15],20%
same,IC50,[2],9.85 µM
same,IC50,[3],4.09 µM
same,IC50,[4],7.53 µM
same,IC50,[5],8.25 µM
same,selectivity ratio,[6],0.76
same,selectivity ratio,[7],2.01
CCN(CC)CCCC(C)Nc1ccnc2cc(Cl)ccc12 (stereo not drawn) [CHLOROQUINE],Activity,[16],100%
same,Activity,[17],100%
same,IC50,[2],100 µM
same,IC50,[3],49 µM
same,IC50,[4],3.07 µM
same,IC50,[5],15 µM
C=C(c1ccc(Cl)c(Cl)c1Cl)C1COC2(OO1)C1CC3CC(C1)CC2C3 (stereo not drawn),IC50,[1],0.0421 µM
same,CC50 at 24 h,[10],75.8 µM
same,selectivity ratio,[11],1810
same,IC50,[2],15 µM
same,IC50,[3],34.4 µM
same,IC50,[4],17.6 µM
same,IC50,[5],6.56 µM
same,selectivity ratio,[6],1.17
same,selectivity ratio,[7],0.66
C=C(c1ccc(Cl)c(Cl)c1Cl)C1COC(C)(C)OO1 (stereo not drawn),IC50,[1],> 0.1 µM
same,IC50,[2],52.1 µM
same,IC50,[3],27.3 µM
same,IC50,[4],10.2 µM
same,IC50,[5],18.1 µM
same,selectivity ratio,[6],0.19
same,selectivity ratio,[7],0.14
C=C(c1ccc(F)c(F)c1)C1COC2(CCCC2)OO1 (stereo not drawn),IC50,[1],0.0266 µM
same,IC50,[8],0.196 µM
same,Ratio IC50,[9],7.36
same,CC50 at 24 h,[10],23.3 µM
same,selectivity ratio,[11],895
same,IC50,[2],11.7 µM
same,IC50,[3],38.6 µM
same,IC50,[4],73.6 µM
same,IC50,[5],8.84 µM
same,selectivity ratio,[6],7.76
same,selectivity ratio,[7],0.36
C=C(c1ccc(Cl)c(Cl)c1)C1COC2(CCCC2)OO1 (stereo not drawn),IC50,[1],> 0.1 µM
same,IC50,[2],4.68 µM
same,IC50,[3],62.6 µM
same,IC50,[4],50.9 µM
same,IC50,[5],8.45 µM
same,selectivity ratio,[6],10.9
same,selectivity ratio,[7],0.13
C=C(c1ccc(OC)c(F)c1)C1COC(C)(C)OO1 (stereo not drawn),IC50,[1],> 0.1 µM
same,IC50,[2],100 µM
same,IC50,[3],> 100 µM
same,IC50,[4],68.7 µM
same,IC50,[5],> 100 µM
same,selectivity ratio,[7],0.37
C=C(c1ccc(Cl)c(Cl)c1)C1COC2(CCCCC2)OO1 (stereo not drawn),IC50,[1],> 0.1 µM
same,IC50,[2],12.8 µM
same,IC50,[3],83.5 µM
same,IC50,[4],39.4 µM
same,IC50,[5],83.5 µM
same,selectivity ratio,[6],3.07
same,selectivity ratio,[7],2.37
C=C(c1ccc(OC)c(F)c1)C1COC2(CCCC2)OO1 (stereo not drawn),IC50,[1],0.0111 µM
same,IC50,[8],0.0864 µM
same,Ratio IC50,[9],7.8
same,CC50 at 24 h,[10],33 µM
same,selectivity ratio,[11],3000
same,IC50,[2],9.7 µM
same,IC50,[3],29.3 µM
same,IC50,[4],55.8 µM
same,IC50,[5],18.5 µM
same,selectivity ratio,[6],5.75
same,selectivity ratio,[7],0.63
C=C(c1ccc(OC)c(F)c1)C1COC2(CCCCC2)OO1 (stereo not drawn),IC50,[1],> 0.1 µM
same,IC50,[2],6.53 µM
same,IC50,[3],13.1 µM
same,IC50,[4],37.7 µM
same,IC50,[5],15.4 µM
same,selectivity ratio,[6],5.77
same,selectivity ratio,[7],1.17
C=C(c1ccc(F)c(F)c1)C1COC2(CCCCC2)OO1 (stereo not drawn),IC50,[1],> 0.1 µM
same,IC50,[2],7.88 µM
same,IC50,[3],28.6 µM
same,IC50,[4],61.2 µM
same,IC50,[5],16.5 µM
same,selectivity ratio,[6],1.26
same,selectivity ratio,[7],0.22
C=C(c1cc(Cl)cc(Cl)c1OCc1ccccc1)C1COC2(OO1)C1CC3CC(C1)CC2C3 (stereo not drawn),IC50,[1],0.0224 µM
same,IC50,[8],0.043 µM
same,Ratio IC50,[9],1.93
same,CC50 at 24 h,[10],60.9 µM
same,selectivity ratio,[11],2770
same,IC50,[2],31.6 µM
same,IC50,[3],> 100 µM
same,IC50,[4],> 100 µM
same,IC50,[5],> 100 µM
same,selectivity ratio,[7],1.62
C=C(c1ccc(Cl)c(Cl)c1Cl)C1COC2(CCCCC2)OO1 (stereo not drawn),IC50,[1],> 0.1 µM
same,IC50,[2],1.37 µM
same,IC50,[3],9.02 µM
same,IC50,[4],10.3 µM
same,IC50,[5],1.22 µM
same,selectivity ratio,[6],7.51
same,selectivity ratio,[7],0.72
